Measured values taken from PubChem BioAssay (NCI).
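All cell lines were grown in 96-well plates and treated with compound for 48 hours. TGI marks complete inhibition of growth.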

What was measured:
Assay in all cases: NCI tumour cell line growth inhibition, 48 h
M14 melanoma = system: M14 melanoma
MALME-3M melanoma = system: MALME-3M melanoma
RPMI-8226 leukemia = system: RPMI-8226 leukemia
K-562 leukemia = system: K-562 leukemia
HCT-15 colon = system: HCT-15 colon
SNB-75 CNS = system: SNB-75 CNS
UACC-257 melanoma = system: UACC-257 melanoma
HS 578T breast = system: HS 578T breast
PC-3 prostate = system: PC-3 prostate
KM12 colon = system: KM12 colon
ACHN renal = system: ACHN renal
U251 CNS = system: U251 CNS
SK-OV-3 ovarian = system: SK-OV-3 ovarian
DU-145 prostate = system: DU-145 prostate
BT-549 breast = system: BT-549 breast
SF-295 CNS = system: SF-295 CNS
MDA-MB-231 breast = system: MDA-MB-231 breast
OVCAR-8 ovarian = system: OVCAR-8 ovarian
CAKI-1 renal = system: CAKI-1 renal
MCF7 breast = system: MCF7 breast
SK-MEL-5 melanoma = system: SK-MEL-5 melanoma
A498 renal = system: A498 renal
SF-539 CNS = system: SF-539 CNS
HCC-2998 colon = system: HCC-2998 colon
RXF 393 renal = system: RXF 393 renal
CCRF-CEM leukemia = system: CCRF-CEM leukemia
OVCAR-4 ovarian = system: OVCAR-4 ovarian
HL-60(TB) leukemia = system: HL-60(TB) leukemia
UO-31 renal = system: UO-31 renal
UACC-62 melanoma = system: UACC-62 melanoma
SK-MEL-28 melanoma = system: SK-MEL-28 melanoma
IGROV1 ovarian = system: IGROV1 ovarian
TK-10 renal = system: TK-10 renal
MOLT-4 leukemia = system: MOLT-4 leukemia
NCI-H460 lung = system: NCI-H460 lung
SF-268 CNS = system: SF-268 CNS
NCI-H23 lung = system: NCI-H23 lung
SW-620 colon = system: SW-620 colon
OVCAR-5 ovarian = system: OVCAR-5 ovarian
MDA-N = system: MDA-N
EKVX NSCLC = system: EKVX NSCLC
NCI/ADR-RES ovarian = system: NCI/ADR-RES ovarian
SK-MEL-2 melanoma = system: SK-MEL-2 melanoma
COLO 205 colon = system: COLO 205 colon
OVCAR-3 ovarian = system: OVCAR-3 ovarian
MDA-MB-435 = system: MDA-MB-435
HT29 colon = system: HT29 colon
SR leukemia = system: SR leukemia
T-47D breast = system: T-47D breast
786-0 renal = system: 786-0 renal
HCT-116 colon = system: HCT-116 colon
A549 NSCLC = system: A549 NSCLC
NCI-H226 lung = system: NCI-H226 lung
NCI-H522 lung = system: NCI-H522 lung
SN12C renal = system: SN12C renal
SNB-19 CNS = system: SNB-19 CNS
LOX IMVI melanoma = system: LOX IMVI melanoma
HOP-62 NSCLC = system: HOP-62 NSCLC
HOP-92 NSCLC = system: HOP-92 NSCLC

## CC(C)(C)CC(C)(C)c1ccc(O)c(C[N+](C)(C)[O-])c1
M14 melanoma
  TGI: > 100 µM
MALME-3M melanoma
  TGI: > 100 µM
RPMI-8226 leukemia
  TGI: > 100 µM
K-562 leukemia
  TGI: > 100 µM
HCT-15 colon
  TGI: > 100 µM
SNB-75 CNS
  TGI: > 100 µM
UACC-257 melanoma
  TGI: > 100 µM
HS 578T breast
  TGI: > 100 µM
PC-3 prostate
  TGI: > 100 µM
KM12 colon
  TGI: > 100 µM
ACHN renal
  TGI: > 100 µM
U251 CNS
  TGI: > 100 µM
SK-OV-3 ovarian
  TGI: > 100 µM
DU-145 prostate
  TGI: > 100 µM
BT-549 breast
  TGI: > 100 µM
SF-295 CNS
  TGI: > 100 µM
MDA-MB-231 breast
  TGI: > 100 µM
OVCAR-8 ovarian
  TGI: > 100 µM
CAKI-1 renal
  TGI: > 100 µM
MCF7 breast
  TGI: > 100 µM
SK-MEL-5 melanoma
  TGI: > 100 µM
A498 renal
  TGI: > 100 µM
SF-539 CNS
  TGI: > 100 µM
HCC-2998 colon
  TGI: > 100 µM
RXF 393 renal
  TGI: > 100 µM
CCRF-CEM leukemia
  TGI: > 100 µM
OVCAR-4 ovarian
  TGI: > 100 µM
HL-60(TB) leukemia
  TGI: 99.6 µM
UO-31 renal
  TGI: > 100 µM
UACC-62 melanoma
  TGI: > 100 µM
SK-MEL-28 melanoma
  TGI: > 100 µM
IGROV1 ovarian
  TGI: > 100 µM
TK-10 renal
  TGI: > 100 µM
MOLT-4 leukemia
  TGI: > 100 µM
NCI-H460 lung
  TGI: > 100 µM
SF-268 CNS
  TGI: > 100 µM
NCI-H23 lung
  TGI: > 100 µM
SW-620 colon
  TGI: > 100 µM
OVCAR-5 ovarian
  TGI: > 100 µM
MDA-N
  TGI: > 100 µM
EKVX NSCLC
  TGI: > 100 µM
NCI/ADR-RES ovarian
  TGI: > 100 µM
SK-MEL-2 melanoma
  TGI: > 100 µM
COLO 205 colon
  TGI: > 100 µM
OVCAR-3 ovarian
  TGI: > 100 µM
MDA-MB-435
  TGI: > 100 µM
HT29 colon
  TGI: > 100 µM
SR leukemia
  TGI: > 100 µM
T-47D breast
  TGI: > 100 µM
786-0 renal
  TGI: > 100 µM
HCT-116 colon
  TGI: > 100 µM
A549 NSCLC
  TGI: > 100 µM
NCI-H226 lung
  TGI: > 100 µM
NCI-H522 lung
  TGI: > 100 µM
SN12C renal
  TGI: > 100 µM
SNB-19 CNS
  TGI: > 100 µM
LOX IMVI melanoma
  TGI: > 100 µM
HOP-62 NSCLC
  TGI: > 100 µM
HOP-92 NSCLC
  TGI: > 100 µM
